Patent US8013156B2 (Exelixis, Inc., priority 2003, dated 2011)

biological target: Tie-2 (Homo sapiens, UniProt Q02763); assay: Tie-2 tyrosine kinase activity assay (luciferase/luciferin ATP consumption with pEY substrate, or 33P-ATP incorporation); type: biochemical; conditions: human enzyme Tie-2
Procedure, shortened: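 Values are IC50 categories (A <50 nM to D ≥10,000 nM), with Ki obtainable by fitting rates to a tight-binding model. Assay formats: 33P-ATP phosphate transfer to adsorbed generic substrate counted by scintillation, or luciferase-detected ATP depletion using pEY.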

Tie-2, sequence (Q02763 23-1124): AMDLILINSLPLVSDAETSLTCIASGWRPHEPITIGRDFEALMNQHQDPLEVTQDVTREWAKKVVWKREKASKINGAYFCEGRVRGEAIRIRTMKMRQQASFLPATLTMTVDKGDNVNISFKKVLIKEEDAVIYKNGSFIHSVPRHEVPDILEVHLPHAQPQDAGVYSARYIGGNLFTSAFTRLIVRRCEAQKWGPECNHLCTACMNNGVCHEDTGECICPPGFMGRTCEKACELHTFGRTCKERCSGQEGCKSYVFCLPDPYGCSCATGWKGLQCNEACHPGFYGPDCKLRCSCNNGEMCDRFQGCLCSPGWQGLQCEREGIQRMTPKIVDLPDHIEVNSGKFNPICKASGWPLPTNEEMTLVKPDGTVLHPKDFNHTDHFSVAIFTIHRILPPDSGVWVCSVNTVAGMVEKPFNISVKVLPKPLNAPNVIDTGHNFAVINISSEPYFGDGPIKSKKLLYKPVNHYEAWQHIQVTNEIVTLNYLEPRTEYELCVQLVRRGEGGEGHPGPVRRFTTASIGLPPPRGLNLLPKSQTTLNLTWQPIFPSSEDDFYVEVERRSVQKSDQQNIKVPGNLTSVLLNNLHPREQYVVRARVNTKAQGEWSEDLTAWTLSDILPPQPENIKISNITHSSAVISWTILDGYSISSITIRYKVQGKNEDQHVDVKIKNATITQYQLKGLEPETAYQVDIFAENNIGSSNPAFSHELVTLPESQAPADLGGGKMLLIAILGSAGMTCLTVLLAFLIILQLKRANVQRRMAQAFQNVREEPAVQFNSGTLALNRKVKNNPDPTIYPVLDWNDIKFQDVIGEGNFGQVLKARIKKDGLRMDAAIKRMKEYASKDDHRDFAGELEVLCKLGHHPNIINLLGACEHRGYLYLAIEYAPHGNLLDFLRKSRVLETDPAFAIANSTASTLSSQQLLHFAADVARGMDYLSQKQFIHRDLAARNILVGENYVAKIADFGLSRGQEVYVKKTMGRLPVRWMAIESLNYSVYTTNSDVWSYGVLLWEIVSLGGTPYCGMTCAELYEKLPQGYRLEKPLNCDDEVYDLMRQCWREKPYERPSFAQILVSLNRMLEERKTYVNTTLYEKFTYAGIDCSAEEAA

| SMILES | IC50 [nM] |
| --- | --- |
| C[C@@H]1CN(c2nsnc2OCc2ccncc2)CCN1C(=O)Nc1cc(C(F)(F)F)cc(C(F)(F)F)c1 [Example 52, (2R)-N-[3,5-bis(trifluoromethyl)phenyl]-2-methyl-4-{4-[(pyridin-4-ylmethyl)oxy]-1,2,5-thiadiazol-3-yl}piperazine-1-carboxamide] | 50 to 1000 |
| CN(C)CCNc1nccc(COc2nsnc2N2CCN(C(=O)Nc3cc(C(F)(F)F)cc(C(F)(F)F)c3)CC2)n1 [Example 119, N-[3,5-bis(trifluoromethyl)phenyl]-4-(4-{[(2-{[2-(dimethylamino)ethyl]amino}pyrimidin-4-yl)methyl]oxy}-1,2,5-thiadiazol-3-yl)piperazine-1-carboxamide] | 50 to 1000 |
| CCc1cc(NC(=O)N2CCN(c3nsnc3OCc3ccnc(N)n3)CC2)ccc1F [Example 252, 4-(4-{[(2-aminopyrimidin-4-yl)methyl]oxy}-1,2,5-thiadiazol-3-yl)-N-(3-ethyl-4-fluorophenyl)piperazine-1-carboxamide] | 50 to 1000 |
| O=C(Nc1cc(C(F)(F)F)cc(C(F)(F)F)c1)N1CCCN(c2nsnc2OCc2ccncc2)CC1 [Example 23] | 50 to 1000 |
| Nc1nccc(COc2nsnc2N2CCN(C(=O)Nc3cc(Cl)cc(Cl)c3)CC2)n1 [Example 223, 4-(4-{[(2-aminopyrimidin-4-yl)methyl]oxy}-1,2,5-thiadiazol-3-yl)-N-(3,5-dichlorophenyl)piperazine-1-carboxamide] | 50 to 1000 |
| Nc1nccc(COc2cccnc2N2CCN(C(=O)NC3CCCCC3)CC2)n1 [Example 206, 4-(3-{[(2-aminopyrimidin-4-yl)methyl]oxy}pyridin-2-yl)-N-cyclohexylpiperazine-1-carboxamide] | 1000 to 10000 |
| CN(C)CCNc1cc(COc2nsnc2N2CCN(C(=O)Nc3cc(C(F)(F)F)cc(C(F)(F)F)c3)CC2)ccn1 [Example 120, N-[3,5-bis(trifluoromethyl)phenyl]-4-(4-{[(2-{[2-(dimethylamino)ethyl]amino}pyridin-4-yl)methyl]oxy}-1,2,5-thiadiazol-3-yl)piperazine-1-carboxamide] | 50 to 1000 |
| CN1CCN(CCOC(=O)Nc2cc(COc3nsnc3N3CCN(C(=O)Nc4cc(C(F)(F)F)cc(C(F)(F)F)c4)CC3)ccn2)CC1 [Example 145, 2-(4-methylpiperazin-1-yl)ethyl {4-[({4-[4-({[3,5-bis(trifluoromethyl)phenyl]amino}carbonyl)piperazin-1-yl]-1,2,5-thiadiazol-3-yl}oxy)methyl]pyridin-2-yl}carbamate] | < 50 |
| CCc1cc(CC)cc(NC(=O)N2CCN(c3nsnc3OCc3ccnc(N)n3)CC2)c1 [Example 242, 4-(4-{[(2-aminopyrimidin-4-yl)methyl]oxy}-1,2,5-thiadiazol-3-yl)-N-(3,5-diethylphenyl)piperazine-1-carboxamide] | < 50 |
| CSc1cccc(NC(=O)N2CCN(c3nsnc3OCc3ccncc3)CC2C)c1 (centres unmarked) [Example 51, 2-methyl-N-[3-(methylthio)phenyl]-4-{4-[(pyridin-4-ylmethyl)oxy]-1,2,5-thiadiazol-3-yl}piperazine-1-carboxamide] | 50 to 1000 |
| Nc1nccc(COc2nsnc2N2CCN(C(=O)Nc3cc(C(F)(F)F)cc(C(F)(F)F)c3)CC2)n1 [Example 104, 4-(4-{[(2-aminopyrimidin-4-yl)methyl]oxy}-1,2,5-thiadiazol-3-yl)-N-[3,5-bis(trifluoromethyl)phenyl]piperazine-1-carboxamide] | < 50 |
| CCc1ccc(F)c(NC(=O)N2CCN(c3nccnc3OCc3ccnc(N)n3)CC2)c1 [Example 203, 4-(3-{[(2-aminopyrimidin-4-yl)methyl]oxy}pyrazin-2-yl)-N-(5-ethyl-2-fluorophenyl)piperazine-1-carboxamide] | < 50 |
| NC(=O)c1cnc(OCc2ccnc(N)n2)c(N2CCN(C(=O)Nc3cc(C(F)(F)F)cc(C(F)(F)F)c3)CC2)n1 [Example 275, 5-{[(2-aminopyrimidin-4-yl)methyl]oxy}-6-[4-({[3,5-bis(trifluoromethyl)phenyl]amino}carbonyl)piperazin-1-yl]pyrazine-2-carboxamide] | < 50 |
| O=C(O)c1ccc(COc2nsnc2N2CCN(C(=O)Nc3cc(C(F)(F)F)cc(C(F)(F)F)c3)CC2)cc1 [Example 32, 4-[({4-[4-({[3,5-bis(trifluoromethyl)phenyl]amino}carbonyl)piperazin-1-yl]-1,2,5-thiadiazol-3-yl}oxy)methyl]benzoic acid] | 1000 to 10000 |
| COc1ccc(COc2nsnc2N2CCN(C(=O)Nc3cc(C(F)(F)F)cc(C(F)(F)F)c3)CC2)cc1 [Example 17] | ≥ 10000 |

Now from value to compound:

| IC50 [nM] | SMILES |
| --- | --- |
| 50 to 1000 | O=C(Nc1cccc(C(F)(F)F)c1)N1CCN(c2ccccc2OCc2ccncc2)CC1 [Example 73, 4-{2-[(pyridin-4-ylmethyl)oxy]phenyl}-N-[3-(trifluoromethyl)phenyl]piperazine-1-carboxamide] |
| ≥ 10000 | CC(C)CNC(=O)N1CCN(c2ncccc2OCc2ccnc(N)n2)CC1 [Example 220, 4-(3-{[(2-aminopyrimidin-4-yl)methyl]oxy}pyridin-2-yl)-N-(2-methylpropyl)piperazine-1-carboxamide] |
| < 50 | CCc1cccc(NC(=O)N2CCN(c3ncc(Br)cc3OCc3nc(N)ncc3Br)CC2)c1 [Example 194, 4-(3-{[(2-amino-5-bromopyrimidin-4-yl)methyl]oxy}-5-bromopyridin-2-yl)-N-(3-ethylphenyl)piperazine-1-carboxamide] |
| < 50 | Nc1nccc(COc2cccnc2N2CCN(C(=O)Nc3cc(C(F)(F)F)cc(Cl)c3F)CC2)n1 [Example 249, 4-(3-{[(2-aminopyrimidin-4-yl)methyl]oxy}pyridin-2-yl)-N-[3-chloro-2-fluoro-5-(trifluoromethyl)phenyl]piperazine-1-carboxamide] |
| < 50 | Nc1nccc(COc2ccccc2N2CCN(C(=O)Nc3cc(F)cc(C(F)(F)F)c3)CC2)n1 [Example 272, 4-(2-{[(2-aminopyrimidin-4-yl)methyl]oxy}phenyl)-N-[3-fluoro-5-(trifluoromethyl)phenyl]piperazine-1-carboxamide] |
| < 50 | CCc1cccc(NC(=O)N2CCN(c3nc(C)ccc3OCc3ccnc(N)n3)CC2)c1 [Example 227, 4-(3-{[(2-aminopyrimidin-4-yl)methyl]oxy}-6-methylpyridin-2-yl)-N-(3-ethylphenyl)piperazine-1-carboxamide] |
| ≥ 10000 | Nc1cc(COc2nsnc2N2CCN(C(=O)Nc3cccc4ccccc34)CC2)ccn1 [Example 149, 4-(4-{[(2-aminopyridin-4-yl)methyl]oxy}-1,2,5-thiadiazol-3-yl)-N-naphthalen-1-ylpiperazine-1-carboxamide] |
| < 50 | CCc1cccc(NC(=O)N2CCN(c3ccccc3OCc3ccnc(N)n3)CC2)c1 [Example 256, 4-(2-{[(2-aminopyrimidin-4-yl)methyl]oxy}phenyl)-N-(3-ethylphenyl)piperazine-1-carboxamide] |
| < 50 | CCc1ccc(F)c(NC(=O)N2CCN(c3nc(Cl)ccc3OCc3ccnc(N)n3)CC2)c1 [Example 246, 4-(3-{[(2-aminopyrimidin-4-yl)methyl]oxy}-6-chloropyridin-2-yl)-N-(5-ethyl-2-fluorophenyl)piperazine-1-carboxamide] |
| < 50 | Nc1nccc(COc2cccnc2N2CCN(C(=O)Nc3cccc(Br)c3)CC2)n1 [Example 184, 4-(3-{[(2-aminopyrimidin-4-yl)methyl]oxy}pyridin-2-yl)-N-(3-bromophenyl)piperazine-1-carboxamide] |
| 50 to 1000 | N#Cc1nc(OCc2ccncc2)c(N2CCN(C(=O)Nc3cccc(C(F)(F)F)c3)CC2)nc1C#N [Example 91, 4-{5,6-dicyano-3-[(pyridin-4-ylmethyl)oxy]pyrazin-2-yl}-N-[3-(trifluoromethyl)phenyl]piperazine-1-carboxamide] |
| ≥ 10000 | CCC(=O)N1CCN(c2ncccc2OCc2ccnc(N)n2)CC1 [Example 208, 4-({[2-(4-propanoylpiperazin-1-yl)pyridin-3-yl]oxy}methyl)pyrimidin-2-amine] |
| 50 to 1000 | Nc1nccc(COc2cccnc2N2CCN(C(=O)Nc3cccc(Cl)c3)CC2)n1 [Example 183, 4-(3-{[(2-aminopyrimidin-4-yl)methyl]oxy}pyridin-2-yl)-N-(3-chlorophenyl)piperazine-1-carboxamide] |
| 50 to 1000 | CC1CN(C(=O)Nc2cccc(C(F)(F)F)c2)CCN1c1nccnc1OCc1ccncc1 (centres unmarked) [Example 71, 3-methyl-4-{3-[(pyridin-4-ylmethyl)oxy]pyrazin-2-yl}-N-[3-(trifluoromethyl)phenyl]piperazine-1-carboxamide] |
| < 50 | COC(=O)Nc1cc(COc2cccnc2N2CCN(C(=O)Nc3cccc(Br)c3)CC2)ccn1 [Example 164, methyl [4-({[2-(4-{[(3-bromophenyl)amino]carbonyl}piperazin-1-yl)pyridin-3-yl]oxy}methyl)pyridin-2-yl]carbamate] |
| 50 to 1000 | O=C(Nc1cccc(C(F)(F)F)c1)N1CCN(c2nsnc2OCc2ccncc2)CC1 [Example 9] |
| < 50 | Nc1cc(COc2nsnc2N2CCN(C(=O)Nc3cccc(SC(F)(F)F)c3)CC2)ccn1 [Example 147, 4-(4-{[(2-aminopyridin-4-yl)methyl]oxy}-1,2,5-thiadiazol-3-yl)-N-{3-[(trifluoromethyl)thio]phenyl}piperazine-1-carboxamide] |
| 1000 to 10000 | O=C(Nc1cccc(Br)c1)N1CCN(c2nsnc2OCc2ccncc2)CC1 [Example 5] |
| < 50 | CCNc1cc(COc2nsnc2N2CCN(C(=O)Nc3cc(C(F)(F)F)cc(C(F)(F)F)c3)CC2)ccn1 [Example 113, N-[3,5-bis(trifluoromethyl)phenyl]-4-[4-({[2-(ethylamino)pyridin-4-yl]methyl}oxy)-1,2,5-thiadiazol-3-yl]piperazine-1-carboxamide] |
| < 50 | Nc1nccc(COc2cccnc2N2CCN(C(=O)Nc3cc(Cl)cc(C(F)(F)F)c3)CC2)n1 [Example 235, 4-(3-{[(2-aminopyrimidin-4-yl)methyl]oxy}pyridin-2-yl)-N-[3-chloro-5-(trifluoromethyl)phenyl]piperazine-1-carboxamide] |
